Assay results published in ChEMBL document CHEMBL1201862, “PubChem BioAssay data set” (2004).
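Where inhibition never reached the appropriate level, the endpoint shown equals the highest concentration tested. Otherwise, values were interpolated linearly from a five-concentration, 48-hour dose response in 96-well plates. GI50 = concentration required for 50% inhibition of growth.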 The source made the active and inactive calls. Cut-off read from the data, not from the text of the source: active = GI50 up to about 1.1 µM and inactive = higher.

Assays:
Test in all cases: growth of human tumour cells (NCI), 48 h
SF-295 = test system: SF-295
HOP-62 = test system: HOP-62
ACHN = test system: ACHN
HCT-15 = test system: HCT-15
UACC-257 = test system: UACC-257
NCI/ADR-RES = test system: NCI/ADR-RES
A549 = test system: A549
K562 = test system: K562
CAKI-1 = test system: CAKI-1
SF-539 = test system: SF-539
SK-OV-3 = test system: SK-OV-3
NCI-H522 = test system: NCI-H522
PC-3 = test system: PC-3
MOLT-4 = test system: MOLT-4
SW-620 = test system: SW-620
M14 = test system: M14
MDA-MB-435 = test system: MDA-MB-435
MDA-N = test system: MDA-N
Hs-578T = test system: Hs-578T
BT-549 = test system: BT-549
MCF7 = test system: MCF7
OVCAR-4 = test system: OVCAR-4
EKVX = test system: EKVX
KM12 = test system: KM12
SK-MEL-5 = test system: SK-MEL-5
SNB-19 = test system: SNB-19
COLO 205 = test system: COLO 205
RXF 393 = test system: RXF 393
SK-MEL-2 = test system: SK-MEL-2
MDA-MB-231 = test system: MDA-MB-231
SK-MEL-28 = test system: SK-MEL-28
TK-10 = test system: TK-10
NCI-H23 = test system: NCI-H23
UACC-62 = test system: UACC-62
DU-145 = test system: DU-145
OVCAR-8 = test system: OVCAR-8
U-251 = test system: U-251
SN12C = test system: SN12C
A498 = test system: A498
OVCAR-3 = test system: OVCAR-3
RPMI-8226 = test system: RPMI-8226
786-0 = test system: 786-0
NCI-H460 = test system: NCI-H460
SF-268 = test system: SF-268
T47D = test system: T47D
UO-31 = test system: UO-31
SNB-75 = test system: SNB-75
OVCAR-5 = test system: OVCAR-5
HCT-116 = test system: HCT-116
Malme-3M = test system: Malme-3M
HOP-92 = test system: HOP-92
IGROV-1 = test system: IGROV-1
LOX IMVI = test system: LOX IMVI
HL-60 = test system: HL-60
HCC 2998 = test system: HCC 2998
CCRF-CEM = test system: CCRF-CEM
SR = test system: SR
HT-29 = test system: HT-29

CCCCCCCCCc1nn2c(Cc3ccccc3)nnc2s1
GI50 (SF-295): 18.9 µM (inactive)
GI50 (HOP-62): 19.9 µM (inactive)
GI50 (ACHN): 20 µM (inactive)
GI50 (HCT-15): 19.5 µM
GI50 (UACC-257): 23.5 µM (inactive)
GI50 (NCI/ADR-RES): 16.7 µM (inactive)
GI50 (A549): 20.5 µM (inactive)
GI50 (K562): 32.5 µM (inactive)
GI50 (CAKI-1): 30.3 µM (inactive)
GI50 (SF-539): 18.1 µM (inactive)
GI50 (SK-OV-3): 25.5 µM (inactive)
GI50 (NCI-H522): 14 µM (inactive)
GI50 (PC-3): 22.1 µM (inactive)
GI50 (MOLT-4): 17.3 µM (inactive)
GI50 (SW-620): 17.6 µM (inactive)
GI50 (M14): 20.8 µM (inactive)
GI50 (MDA-MB-435): 26.3 µM (inactive)
GI50 (MDA-N): 20.6 µM (inactive)
GI50 (Hs-578T): 20.8 µM (inactive)
GI50 (BT-549): 18.8 µM (inactive)
GI50 (MCF7): 41.1 µM (inactive)
GI50 (OVCAR-4): 20 µM (inactive)
GI50 (EKVX): 15.5 µM (inactive)
GI50 (KM12): 25 µM (inactive)
GI50 (SK-MEL-5): 15.9 µM (inactive)
GI50 (SNB-19): 18.2 µM (inactive)
GI50 (COLO 205): 17.5 µM (inactive)
GI50 (RXF 393): 18.5 µM (inactive)
GI50 (SK-MEL-2): 19.8 µM (inactive)
GI50 (MDA-MB-231): 24.5 µM (inactive)
GI50 (SK-MEL-28): 17.7 µM (inactive)
GI50 (TK-10): 24.6 µM (inactive)
GI50 (NCI-H23): 19.2 µM (inactive)
GI50 (UACC-62): 18 µM (inactive)
GI50 (DU-145): 22.4 µM (inactive)
GI50 (OVCAR-8): 15.3 µM (inactive)
GI50 (U-251): 18.7 µM (inactive)
GI50 (SN12C): 18.2 µM (inactive)
GI50 (A498): 18.2 µM (inactive)
GI50 (OVCAR-3): 17.2 µM (inactive)
GI50 (RPMI-8226): 23.6 µM (inactive)
GI50 (786-0): 19.2 µM (inactive)
GI50 (NCI-H460): 18.5 µM (inactive)
GI50 (SF-268): 16.7 µM (inactive)
GI50 (T47D): 24.7 µM (inactive)
GI50 (UO-31): 13.1 µM (inactive)
GI50 (SNB-75): 26.4 µM (inactive)
GI50 (OVCAR-5): 14.4 µM (inactive)
GI50 (HCT-116): 18 µM (inactive)

CC[C@@H]1/C=C/C=C/C[C@H](C)[C@@H](O)[C@](C)(O)C(=O)[C@H](C)[C@@H](O)[C@H](C)C(=O)[C@H](C)[C@@H](O)[C@H](C)/C=C/C(=O)O[C@H]2[C@@H](C)[C@@H](CC1)O[C@@]1(CC[C@@H](C)[C@@H](CC(C)O)O1)[C@@H]2C (stereo partly specified)
GI50 (SF-295): < 0.01 µM (active)
GI50 (ACHN): 1.35 µM (inactive)
GI50 (Malme-3M): 3.49 µM (inactive)
GI50 (HCT-15): 1.86 µM
GI50 (UACC-257): < 0.01 µM (active)
GI50 (HOP-92): 1.59 µM (inactive)
GI50 (A549): < 0.01 µM (active)
GI50 (K562): < 0.01 µM (active)
GI50 (IGROV-1): 1.98 µM (inactive)
GI50 (LOX IMVI): 1.68 µM (inactive)
GI50 (HL-60): < 0.01 µM (active)
GI50 (CAKI-1): 1.73 µM (inactive)
GI50 (SF-539): 3.58 µM (inactive)
GI50 (SK-OV-3): 3.13 µM (inactive)
GI50 (NCI-H522): < 0.01 µM (active)
GI50 (PC-3): < 0.01 µM (active)
GI50 (MOLT-4): 1.3 µM (inactive)
GI50 (SW-620): 2.92 µM (inactive)
GI50 (M14): 1.24 µM (inactive)
GI50 (MDA-MB-435): 1.52 µM (inactive)
GI50 (MDA-N): 1.61 µM (inactive)
GI50 (HCC 2998): 1.52 µM (inactive)
GI50 (Hs-578T): 2.88 µM (inactive)
GI50 (BT-549): 1.52 µM (inactive)
GI50 (MCF7): < 0.01 µM (active)
GI50 (CCRF-CEM): 1.22 µM (inactive)
GI50 (EKVX): < 0.01 µM (active)
GI50 (KM12): 1.69 µM (inactive)
GI50 (SK-MEL-5): < 0.01 µM (active)
GI50 (SNB-19): < 0.01 µM (active)
GI50 (SR): 2 µM (inactive)
GI50 (COLO 205): < 0.01 µM (active)
GI50 (RXF 393): 1.68 µM (inactive)
GI50 (SK-MEL-2): 2.13 µM (inactive)
GI50 (MDA-MB-231): 1.83 µM (inactive)
GI50 (SK-MEL-28): 6.5 µM (inactive)
GI50 (TK-10): 1.65 µM (inactive)
GI50 (NCI-H23): < 0.01 µM (active)
GI50 (HT-29): 1.36 µM (inactive)
GI50 (UACC-62): 1.71 µM (inactive)
GI50 (DU-145): 1.88 µM (inactive)
GI50 (OVCAR-8): < 0.01 µM (active)
GI50 (U-251): < 0.01 µM (active)
GI50 (SN12C): 1.72 µM (inactive)
GI50 (RPMI-8226): < 0.0162 µM (active)
GI50 (786-0): 1.85 µM (inactive)
GI50 (NCI-H460): 0.499 µM (active)
GI50 (SF-268): 2.7 µM (inactive)
GI50 (T47D): < 0.01 µM (active)
GI50 (UO-31): 0.0307 µM (active)
GI50 (OVCAR-5): 1.68 µM (inactive)
GI50 (HCT-116): 1.1 µM (active)
